Data reported in patent publication US20190262409A1, “NOVEL LACTOBACILLUS SAKEI AND COMPOSITION COMPRISING THE SAME” (CJ Cheiljedang Corporation, priority 2016, published 2019).

How the values were obtained:
Format in all cases: in vivo
[1] = system: obesity induced mice with high fat diet; assay: Autopsy and blood biochemistry examination in high fat diet mice; settings: serum, day 49, 16 h fasted, compared to HFD or GC group (FIG. 9)
Excerpt: (§1) From the time of arrival, all animals underwent a 6-week induction period, including a one-week acclimation period. The mice were divided into normal diet (negative control) and high fat diet (positive control and experiment group) and each fed, while given feed and water ad libitum for 6 weeks from the day of division (day 0). The CJLS03 according to the present disclosure was grouped according to concentrations (low: 10^8 CFU, medium: 10^9 CFU, high: 10^10 CFU). To measure accurate efficacy, a commercially available FDA-approved anti-obesity drug Orlistat (Product name: Zenical), and a health function food Garcinia cambogia were added as experiment groups in addition to the normal diet control group and high fat diet group, and compared with the anti-obesity function of the lactic acid bacterial.
For administration, the lactic acid bacteria were homogeneously suspended in PBS and administered in a 10 mL/kg of administration volume twice daily at determined times (10:00 A.M. to 11:00 A.M., 5:00 P.M. to 6:00 P.M.) for 7 weeks, while the control groups were orally administered with the same amount of solvent vehicle (PBS) twice daily for 7 weeks. Experimental substances were newly prepared and administered into the A.M. and P.M.-administered strain. All strains were stored under refrigeration so as to retain the active condition thereof, and the PBS which was refrigerated was used for washing strain samples and preparing solutions. The experimental animal of each group was fasted for 16 hours and sacrificed on the termination day of experiment (day 49) to be used for blood biochemistry tests and histological evaluation analysis.
On the day of termination of the experiment according to Example 4-1 (day 49), the experimental animals were sacrificed after stopping their diets for 16 hours and autopsied. All of the experimental animals were subjected to collection of about 500 μL to 700 μL of blood using a heparin-free capillary tube of plexus venosus under an ether inhalation anesthesia. The collected blood was put in an SST tube and coagulated for 30 minutes to 1 hour at room temperature. The blood was then centrifuged at 4° C. and 4000 rpm for 10 minutes to separate the serum followed by storing at −80° C. until the analysis. The amounts of glucose (GLU), triglyceride (TG), total cholesterol (TC), low-density lipoprotein cholesterol (LDL), high-density lipoprotein cholesterol (HDL), glutamate oxaloacetate transaminase (GOT; AST), glutamate pyruvate transaminase (GPT; ALT), CREA (creatinine), and lactate dehydrogenase (LDH) in the separated serum were measured using a blood biochemistry (Accute TBA-40FR, Toshiba Medical System Co., Japan).

[2] = system: obesity induced mice with high fat diet; assay: Histological evaluation of liver tissue (H & E) in high fat diet mice; settings: H & E stained liver sections; CJLS03 high concentration group (FIG. 12)
Excerpt: as §1
(§2) For administration, the lactic acid bacteria were homogeneously suspended in PBS and administered in a 10 mL/kg of administration volume twice daily at determined times (10:00 A.M. to 11:00 A.M., 5:00 P.M. to 6:00 P.M.) for 7 weeks, while the control groups were orally administered with the same amount of solvent vehicle (PBS) twice daily for 7 weeks. Experimental substances were newly prepared and administered into the A.M. and P.M.-administered strain. […]
Liver tissues of the ND, HFD, OLS, GC, and high CJLS03 concentration groups were histologically evaluated. […]

[3] = system: obesity induced mice with high fat diet; assay: Measurement of organ fat weight in high fat diet mice; settings: compared with HFD group (FIGS. 10 and 11)
Excerpt: (§3) From the time of arrival, all animals underwent a 6-week induction period, including a one-week acclimation period. The mice were divided into normal diet (negative control) and high fat diet (positive control and experiment group) and each fed, while given feed and water ad libitum for 6 weeks from the day of division (day 0). The CJLS03 according to the present disclosure was grouped according to concentrations (low: 10^8 CFU, medium: 10^9 CFU, high: 10^10 CFU). […]
as §2, with “weeks.” for “weeks. Experimental substances were newly prepared and administered into the A.M. and P.M.-administered strain.”
After blood was collected, the visceral examination was carried out to confirm the presence of abnormalities in the internal organs, and the adipose tissues (epididymal fat, subcutaneous fat, mesenteric fat) were extracted. […] The weight of each adipose tissue was measured with an electronic balance. Additionally, the relative tissue weight per 100 g of body weight was calculated based on the body weight fasted before autopsy (calculation formula: relative organ weight (%)=organ weight (g)/fasting body weight before autopsy (g)×100). […]

[4] = system: obesity induced mice with high fat diet; assay: Measurement of size of adipocytes in high fat diet mice; settings: compared to HFD and GC groups; CJLS03 high concentration group (FIG. 13)
Excerpt: as §3
as §2, with “weeks.” for “weeks. Experimental substances were newly prepared and administered into the A.M. and P.M.-administered strain.”
Measuring the size of adipocytes is well known as an effective method capable of proving the anti-obesity efficacy. […] The adipocyte photos were analyzed using the Scion image program (derived from NIH Image) by calculating an average value of two adipocyte sizes. […]

SMILES: CCCCCCCCCCC[C@@H](C[C@@H]1OC(=O)[C@H]1CCCCCC)OC(=O)[C@H](CC(C)C)NC=O [OLS, Orlistat]
- concentration of blood HDL [1]: significantly reduce
- concentration of blood LDL [1]: significantly reduce
- concentration of blood TC (total cholesterol) [1]: significantly reduce
- concentration of blood glucose [1]: significantly reduce
- lipid particles in liver tissue [2]: rarely found
- fasting weight ([3]; body weight after 16 h fasting before autopsy): lower than those of the HFD group
- adipose tissue weights ([3]; epididymal, subcutaneous, mesenteric fat): lower than those of the HFD group
- sizes of the adipocytes [4]: significantly reduced
